Assay results reported in US20160102317A1, “PLANTS HAVING INCREASED TOLERANCE TO HERBICIDES” (BASF SE, priority 2013, published 2016).

How the values were obtained:
Assay type in all cases: biochemical
[1] = target: T1, Arabidopsis HPPD (SEQ ID NO:53), wild-type (Arabidopsis thaliana, UniProt P93836); test: HPPD activity assay (HGA by HPLC), wild-type enzyme characterization
T1 construct: His6 (N); made in house; host or cells: E. coli BL21 (DE3)
T1 sequence (P93836 1-445): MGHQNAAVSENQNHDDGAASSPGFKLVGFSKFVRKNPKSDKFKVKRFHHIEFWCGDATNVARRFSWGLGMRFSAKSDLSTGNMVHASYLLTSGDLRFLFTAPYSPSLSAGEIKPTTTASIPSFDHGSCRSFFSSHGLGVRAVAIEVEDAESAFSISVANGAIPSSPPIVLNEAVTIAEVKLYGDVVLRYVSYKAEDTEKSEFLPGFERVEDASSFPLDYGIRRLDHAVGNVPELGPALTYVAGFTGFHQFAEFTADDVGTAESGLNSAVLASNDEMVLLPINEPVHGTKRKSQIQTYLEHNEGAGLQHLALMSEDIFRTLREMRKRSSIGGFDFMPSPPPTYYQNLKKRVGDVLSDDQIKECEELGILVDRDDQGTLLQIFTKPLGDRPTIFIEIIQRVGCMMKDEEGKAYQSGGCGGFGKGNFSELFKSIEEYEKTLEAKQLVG
Procedure: (§1) HPPD produces homogentisic acid and CO2 from 4-hydroxyphenylpyruvate (4-HPP) and 02. The activity assay for HPPD is based on the analysis of homogentisic acid by reversed phase HPLC. The assay mixture can contain 150 mM potassium phosphate buffer pH 7.0, 50 mM L-ascorbic acid, 100 μM Catalase (Sigma-Aldrich), 1 μM FeSO4 and 0.2 units of purified HPPD enzyme in a total volume of 505 μl. 1 unit is defined as the amount of enzyme that is required to produce 1 nmol of HGA per minute at 20° C.
(§2) After a preincubation of 30 min the reaction is started by adding 4-HPP to a final concentration of 0.05 mM. The reaction is allowed to proceed for 45 min at room temperature. The reaction is stopped by the addition of 50 μl of 4.5 M phosphoric acid. The sample is filtered using a […] pore size PVDF filtration device.
(§3) 5 μl of the cleared sample is analyzed on an UPLC HSS T3 column (particle size 1.8 μm, dimensions 2.1×50 mm; Waters) by isocratic elution using 90% 20 mM NaH2PO4 pH 2.2, 10% methanol (v/v).
(§4) HGA is detected electrochemically at 750 mV (mode: DC; polarity: positive) and quantified by integrating peak areas (Empower software; Waters).
(§5) Inhibitors are dissolved in DMSO (dimethylsulfoxide) to a concentration of 0.5 mM. From this stock solution serial five-fold dilutions are prepared in DMSO, which are used in the assay. The respective inhibitor solution accounts for 1% of the assay volume. […] Activities are normalized by setting the uninhibited enzyme activity to 100%. IC50 values are calculated using non-linear regression.
Using methods which are described in the above examples or well known in the art, purified, recombinant wild-type HPPD enzymes are characterized with respect to their kinetic properties and sensitivity towards HPPD inhibiting herbicides. Apparent michaelis constants (Km) and maximal reaction velocities (Vmax) are calculated by non-linear regression with the software GraphPad Prism 5 (GraphPad Software, La Jolla, USA) using a substrate inhibition model. […] Weighted means (by standard error) of Km and IC50 values are calculated from at least three independent experiments.
(§6) Field performance of the HPPD enzyme, which is used as a herbicide tolerance trait, may depend not only on its lack of sensitivity towards HPPD inhibiting herbicides but also on its activity. To assess the potential performance of a herbicide tolerance trait a tolerance index (TI) is calculated using the following formula: […]
(§7) Easy comparison and ranking of each trait is enabled by normalizing tolerance indexes on Arabidopsis wild-type HPPD.

[2] = target: T2, Arabidopsis HPPD (SEQ ID: 53) M335H, P336A, E363Q (Arabidopsis thaliana, UniProt P93836, E363Q/M335H/P336A); test: HPPD activity assay, in vitro characterization of HPPD mutants; details: Table 15, Arabidopsis HPPD variant M335H, wild-type = 1
T2 construct: PCR-based site directed mutagenesis of pEXP5-NT/TOPO®-AtHPPD is done; His6 (N); made in house; host or cells: E. coli BL21 (DE3)
Procedure: as §1, §2, §3, §4, §5
(§8) Purified, mutant HPPD enzymes are obtained by the methods described above. Dose response and kinetic measurements are carried out using the described HPPD activity assay. Apparent michaelis constants (Km) and maximal reaction velocities (Vmax) are calculated by non-linear regression with the software GraphPad Prism 5 (Graph Pad Software, La Jolla, USA) using a substrate inhibition model. […] Weighted means (by standard error) of Km and IC50 values are calculated from at least three independent experiments.
as §6, with “of the optimized HPPD enzyme,” for “of the HPPD enzyme,”, “herbicide tolerance trait may depend” for “herbicide tolerance trait, may depend”
as §7

[3] = target: T3, Hordeum HPPD (SEQ ID: 2) G407C (Hordeum vulgare, UniProt O48604, A164G/G407C/R146V/R147D/R148G); test: as above; details: Table 16, Hordeum wild-type = 1
T3 construct: His (N); made in house; host or cells: E. coli BL21 (DE3)
Procedure: as §1, §2, §3, §4, §5, §8
as §6, with “of the optimized HPPD enzyme,” for “of the HPPD enzyme,”, “herbicide tolerance trait may depend” for “herbicide tolerance trait, may depend”
as §7

[4] = target: T4, Hordeum HPPD (SEQ ID: 2) L353M, P321R, V212I (Hordeum vulgare, UniProt O48604, L353M/P321R/V212I); test: as above; details: Table 16, Hordeum wild-type = 1
T4 construct: His (N); made in house; host or cells: E. coli BL21 (DE3)
Procedure: as §1, §2, §3, §4, §5, §8
as §6, with “of the optimized HPPD enzyme,” for “of the HPPD enzyme,”, “herbicide tolerance trait may depend” for “herbicide tolerance trait, may depend”
as §7

[5] = target: T5, Hordeum HPPD (SEQ ID: 2) F377L (Hordeum vulgare, UniProt O48604, A164G/F377L/R146V/R147D/R148G); test: as above; details: Table 16, Hordeum wild-type = 1
T5 construct: His (N); made in house; host or cells: E. coli BL21 (DE3)
Procedure: as §1
After a preincubation of 30 min the reaction is started by adding 4-HPP to a final concentration of 0.05 mM. The reaction is allowed to proceed for 45 min at room temperature. The reaction is stopped by the addition of 50 μl of 4.5 M phosphoric acid. […]
as §3, §4
Inhibitors are dissolved in DMSO (dimethylsulfoxide) to a concentration of 0.5 mM. […] IC50 values are calculated using non-linear regression.
Purified, mutant HPPD enzymes are obtained by the methods described above. […] Weighted means (by standard error) of Km and IC50 values are calculated from at least three independent experiments. […]

T3 sequence (O48604 whole entry R146V/R147D/R148G/A164G/G407C): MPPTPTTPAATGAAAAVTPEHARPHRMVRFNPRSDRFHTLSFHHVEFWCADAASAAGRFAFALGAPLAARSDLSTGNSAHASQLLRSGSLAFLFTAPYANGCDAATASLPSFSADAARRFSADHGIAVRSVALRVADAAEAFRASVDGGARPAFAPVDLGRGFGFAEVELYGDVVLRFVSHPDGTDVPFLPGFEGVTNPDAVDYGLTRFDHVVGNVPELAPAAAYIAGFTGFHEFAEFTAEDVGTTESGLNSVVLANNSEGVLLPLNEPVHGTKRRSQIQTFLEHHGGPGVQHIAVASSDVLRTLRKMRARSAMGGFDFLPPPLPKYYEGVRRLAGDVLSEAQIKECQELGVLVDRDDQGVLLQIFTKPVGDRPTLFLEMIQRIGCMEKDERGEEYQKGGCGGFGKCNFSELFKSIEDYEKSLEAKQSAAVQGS
T2 sequence (P93836 whole entry M335H/P336A/E363Q): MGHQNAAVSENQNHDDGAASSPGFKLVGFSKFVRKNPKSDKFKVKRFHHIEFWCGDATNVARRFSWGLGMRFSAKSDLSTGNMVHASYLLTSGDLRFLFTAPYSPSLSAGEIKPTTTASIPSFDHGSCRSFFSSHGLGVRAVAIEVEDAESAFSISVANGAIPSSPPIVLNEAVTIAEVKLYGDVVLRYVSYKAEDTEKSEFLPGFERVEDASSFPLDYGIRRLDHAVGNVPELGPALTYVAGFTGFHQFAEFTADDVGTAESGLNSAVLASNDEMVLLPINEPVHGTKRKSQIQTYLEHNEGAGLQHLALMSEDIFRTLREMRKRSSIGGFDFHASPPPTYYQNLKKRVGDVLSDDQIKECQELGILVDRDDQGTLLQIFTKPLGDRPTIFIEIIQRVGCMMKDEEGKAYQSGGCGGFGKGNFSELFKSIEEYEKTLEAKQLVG
T4 sequence (O48604 whole entry R146V/R147D/R148G/A164G/V212I/P321R/L353M): as the sequence (O48604 whole entry R146V/R147D/R148G/A164G/G407C) above, with V212I, P321R, L353M, C407G counted along it
T5 sequence (O48604 whole entry R146V/R147D/R148G/A164G/F377L): as the sequence (O48604 whole entry R146V/R147D/R148G/A164G/G407C) above, with F377L, C407G counted along it

Row | Compound | Ki [1] [nM] | TI Inhibitor 1 (normalized tolerance index) ([1]; Table 12, Arabidopsis HPPD, normalized to reference SEQ ID NO:53) | TI Inhibitor 1 (normalized tolerance index) ([1]; Table 15, Arabidopsis HPPD variant Wild-type) | TI Inhibitor 1 (normalized tolerance index) [2] | TI Inhibitor 1 (normalized tolerance index) [3] | TI Inhibitor 1 (normalized tolerance index) [4] | TI Inhibitor 2 (normalized tolerance index) [5]
1 | COc1no[nH]/c1=N/C(=O)c1ccc2c(c1Cl)S(=O)(=O)CCC2(C)C [Inhibitor 1, (NE)-8-chloro-N-(4-methoxy-1,2,5-oxadiazol-3-ylidene)-4,4-dimethyl-1,1-dioxo-2,3-dihydrothiochromene-7-carboxamide] | 19 | 1 | 1 | 0.3 | 3.3 | 2.9 | –
2 | Cc1c(C(=O)Nc2nnnn2C)ccc2c1C(=O)C(C)(C)CS2(=O)=O [Inhibitor 2, 3,3,5-trimethyl-N-(1-methyltetrazol-5-yl)-1,1,4-trioxo-2H-thiochromene-6-carboxamide] | – | – | – | – | – | – | 4.6
